The record followed here is US6541631B1, “Methods of separating FTC isomers and derivatives thereof” (Pharma-Eco Laboratories, Inc., priority 1999, dated 2003).

This data set is described as follows: Solubility of cis-FTC Ester and cis-FTC Alcohol in various solvent systems. Format: physicochemical. The procedure:
Therefore, the solubility of the FTC ester in several solvent systems was determined.
Therefore, the solubility of the cis-FTC Alcohol in several solvent systems was determined.

Consider `Nc1nc(=O)n([C@@H]2CS[C@H](CO)O2)cc1F` (relative stereo) [cis-FTC Alcohol, cis-5-fluoro-1-{2-(hydroxymethyl)-1,3-oxathiolan-5-yl}cytosine], for which the Solubility reads like this: (100% acetonitrile, RT) 0.38%; (100% ethanol, RT) 0.51%; (100% isopropyl alcohol, RT) 0.38%; (100% methanol, 40-45° C.) 3.21%; (100% methanol, RT) 0.77%; (100% water, RT) 0.37%.

`CCCC(=O)OC[C@@H]1O[C@H](n2cc(F)c(N)nc2=O)CS1` (relative stereo) [cis-FTC Ester, cis-{5-(4-amino-5-fluoro-2-oxo-1(2H)-pyrimidinyl)-1,3-oxathiolan-2-yl}methyl butanoate] came in with a Solubility (20% isopropyl alcohol/80% water, 40-45° C.) of 3.59%; a Solubility (50% ethanol/50% methanol, 20° C.) of 9.03%; a Solubility (70% water/30% 2-propanol, 20° C.) of 2.40%; a Solubility (70% water/30% 2-propanol, 35° C.) of 5.39%; a Solubility (74.6% water/13.99% 2-propanol/11.41% butanol, 20° C.) of 3.16%; a Solubility (74.6% water/13.99% 2-propanol/11.41% butanol, 35° C.) of 10.5%. This molecule also came in with a Solubility (80% water/5.5% 2-propanol/14.5% butanol, 20° C.) of 2.55%; a Solubility (80% water/10% 2-propanol/10% butanol, 20° C.) of 2.27%; a Solubility (80% water/10% 2-propanol/10% butanol, 35° C.) of 5.94%; a Solubility (80% water/15% 2-propanol/5% butanol, 20° C.) of 2.57%; a Solubility (80% water/15% 2-propanol/5% tetrahydrofuran, 20° C.) of 0.89%; a Solubility (80% water/20% 2-butanol, 20° C.) of 3.00%. Also, the Solubility (80% water/20% 2-propanol, 20° C.) came to 1.60%; the Solubility (80% water/20% 2-propanol, 35° C.) stood at 3.80%; the Solubility (80% water/20% ethanol, 20° C.) was determined as 0.52%; the Solubility (80% water/20% methanol, 20° C.) was 0.81%; the Solubility (80% water/20% tetrahydrofuran, 20° C.) was 1.80%; the Solubility (85% water/10% 2-propanol/5% tetrahydrofuran, 20° C.) was found to be 0.64%. The Solubility was found to be 0.70% (85% water/15% 2-propanol, 35° C.); 1.24% (85% water/15% dimethylformamide, 20° C.); 1.13% (90% water/10% dimethylformamide, 20° C.); 0.47% (95% water/5% dimethylformamide, 20° C.); 2.68% (100% 2-propanol, 35° C.); 3.85% (100% acetonitrile, 40-45 C). Moreover, the Solubility turned out to be 6.20% (100% acetonitrile, 50° C.); 1.41% (100% acetonitrile, RT); 4.36% (100% ethanol, 20° C.); 1.28% (100% ethanol, RT, 40-45 C); 3.03%?? (100% ethyl acetate, 20° C.); 0.38% (100% isopropyl alcohol, RT, 40-45° C.). The Solubility (100% methanol, 20° C.) is on record as 11.73%.
